The text below walks through data of patent US20240226106A1, “INHIBITORS OF PLASMA KALLIKREIN” (SHIRE HUMAN GENETIC THERAPIES, INC., priority 2021, published 2024).

The structures appear in SMILES notation. Like-named read-outs stand apart in the source and are kept apart here.

Assay [1] deals with human activated kallikrein enzyme (Homo sapiens, UniProt P03952). Description: Inhibition of human activated plasma kallikrein, fluorogenic peptide substrate (PFR-AMC), 500 pM enzyme format. The class given is biochemical. As to conditions: 500 pM activated kallikrein, 30 min preincubation, 10 min reaction, room temperature, read-out: Primary Dose Response Assay: Average EC50. The gist of the method: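 Enzyme at 500 pM with […] PFR-AMC in 20 mM Tris pH 7.5, 1 mM EDTA, 150 mM NaCl, 0.1% PEG-400, 0.1% Triton X-100. Inhibitor preincubated 30 min, then 10 min reaction at room temperature; AMC fluorescence read at 380 nm excitation/460 nm emission.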

For another assay, the target named is T1, plasma kallikrein (Homo sapiens, UniProt P03952).
T1 construct: from tissue; host or cells: sodium citrate collected human plasma
Briefly: Neat human plasma assay (fluorogenic peptide), contact pathway-activated plasma. The class given is biochemical. Conditions: read-out: Human Plasma Assay: IC90. How it is done:
To analyze inhibition of plasma kallikrein in an ex vivo setting, the potency of compounds was measure in contact pathway-activated plasma assays. In a fluorogenic peptide substrate assay, test compounds dissolved in DMSO were added to sodium citrate collected human or rat plasma in a 96-well microplate. Alternatively, citrated plasma was collected from rats administered the compounds orally or by IV. 10 nM of human FXIIa (Enzyme Research Laboratories) diluted in PKa buffer (20 mM Tris-HCl, pH 7.5, 150 mM NaCl, 1 mM EDTA, 0.100 PEG-8000, and 0.1% Triton X-100) was added to the plasma, followed by the 100 μM of the profluorescent, synthetic plasma kallikrein substrate PFR-AMC (also diluted in PKa buffer). Final plasma concentration in the reaction was […]. Fluorescence was immediately monitored by excitation/emission wavelengths of 360 nm/480 nm respectively over a period of 5 minutes in a microplate reader. The resulting linear increase in fluorescence emission (reflecting PKa proteolysis of PFR-AMC substrate) was fit to extract a proteolytic rate (fluorescent units over time), and this rate was subsequently plotted against compound inhibitor concentration. Resulting plots were fit to a standard 4-parameter IC50/C90 equation to determine min/max values, IC50/90, and slope. All experimental steps were performed at room temperature.

Setting [2] is: citrated human plasma, 10 nM human FXIIa activation, 100 μM PFR-AMC, room temperature.

T1 sequence (P03952 391-638 limits assumed): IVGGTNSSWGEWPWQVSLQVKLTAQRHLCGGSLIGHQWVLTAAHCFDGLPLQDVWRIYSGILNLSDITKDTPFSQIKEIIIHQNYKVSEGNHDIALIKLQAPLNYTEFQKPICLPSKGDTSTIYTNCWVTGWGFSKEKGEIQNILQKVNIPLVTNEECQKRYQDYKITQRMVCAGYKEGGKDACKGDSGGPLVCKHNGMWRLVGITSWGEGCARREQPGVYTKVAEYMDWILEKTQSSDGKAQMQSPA
T1 sequence (P03952 20-390 partner limits assumed): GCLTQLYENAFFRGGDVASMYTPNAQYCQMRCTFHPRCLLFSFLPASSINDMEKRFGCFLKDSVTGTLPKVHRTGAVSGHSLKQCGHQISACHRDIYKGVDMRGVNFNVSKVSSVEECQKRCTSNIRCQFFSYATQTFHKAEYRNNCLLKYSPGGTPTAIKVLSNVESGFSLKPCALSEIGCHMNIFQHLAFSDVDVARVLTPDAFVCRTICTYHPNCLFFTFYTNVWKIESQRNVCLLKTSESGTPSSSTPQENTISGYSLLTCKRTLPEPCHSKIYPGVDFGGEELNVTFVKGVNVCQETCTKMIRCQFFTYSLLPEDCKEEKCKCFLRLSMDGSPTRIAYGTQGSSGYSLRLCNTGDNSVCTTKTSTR
Sequence of human activated kallikrein enzyme (P03952 391-638 limits assumed): as the sequence (P03952 391-638 limits assumed) above
Sequence of human activated kallikrein enzyme (P03952 20-390 partner limits assumed): as the sequence (P03952 20-390 partner limits assumed) above

As a reminder, the EC50 is the concentration that produces a half-maximal response. Usually IC90 stands for the concentration needed for an effect of 90%. Regarding `Cc1ccnc([C@H]2C[C@@H]2C(=O)Nc2nc(C)nc(OCc3cn4cc(C5CC5)nc(N5CC(=O)N(C)C5=O)c4n3)n2)n1` [Example 87, (1S,2S)—N-(4-((6-cyclopropyl-8-(3-methyl-2,4-dioxoimidazolidin-1-yl)imidazo[1,2-a]pyrazin-2-yl)methoxy)-6-methyl-1,3,5-triazin-2-yl)-2-(4-methylpyrimidin-2-yl)cyclopropane-1-carboxamide], the EC50 in assay [1] is under 0.0025 µM. Also, the IC90 at plasma kallikrein (setting [2]) lay within 0.5 to 5 µM.

For `Cc1ccnc([C@H]2C[C@@H]2C(=O)Nc2cc(N(C)Cc3cn4cc(C5CC5)cnc4n3)nc(C)n2)n1` [Example 90, (1S,2S)—N-(6-(((6-cyclopropylimidazo[1,2-a]pyrimidin-2-yl)methyl)(methyl)amino)-2-methylpyrimidin-4-yl)-2-(4-methylpyrimidin-2-yl)cyclopropane-1-carboxamide], the EC50 in assay [1] was under 0.0025 µM. Moreover, on plasma kallikrein (setting [2]), the IC90 lay in the range of 5 to 65 µM.

For `Cc1ccnc([C@H]2C[C@@H]2C(=O)Nc2cc(NCc3ccc4ncc(C5CC5)cc4c3)ncn2)n1` [Example 93, (1S,2S)—N-(6-(((3-cyclopropylquinolin-6-yl)methyl)amino)pyrimidin-4-yl)-2-(4-methylpyrimidin-2-yl)cyclopropane-1-carboxamide], the EC50 in assay [1] was under 0.0025 µM. In addition, the IC90 on plasma kallikrein (setting [2]) was under 0.5 µM.

In the case of `Cc1ccnc([C@H]2C[C@@H]2C(=O)Nc2cc(OCc3cn4cc(C5CC5)cnc4n3)cnn2)n1` [Example 94, (1S,2S)—N-(5-((6-cyclopropylimidazo[1,2-a]pyrimidin-2-yl)methoxy)pyridazin-3-yl)-2-(4-methylpyrimidin-2-yl)cyclopropane-1-carboxamide], the EC50 in assay [1] is under 0.0025 µM. The IC90 at plasma kallikrein (setting [2]) is under 0.5 µM.

For `Cc1ccnc([C@H]2C[C@@H]2C(=O)Nc2cc(OCc3cn4nc(C5CC5)cc(N5CC(=O)N(C)C5=O)c4n3)cnn2)n1` [Example 97, (1S,2S)—N-(5-((6-cyclopropyl-8-(3-methyl-2,4-dioxoimidazolidin-1-yl)imidazo[1,2-b]pyridazin-2-yl)methoxy)pyridazin-3-yl)-2-(4-methylpyrimidin-2-yl)cyclopropane-1-carboxamide], the EC50 in assay [1] was under 0.0025 µM. Moreover, the IC90 at plasma kallikrein (setting [2]) was under 0.5 µM.

On to `Cc1ccnc([C@H]2C[C@@H]2C(=O)Nc2cc(NCc3cc(N4CC(=O)N(C)C4=O)c4ncc(C5CC5)cc4c3)ncn2)n1` [Example 98, (1S,2S)—N-(6-(((3-cyclopropyl-8-(3-methyl-2,4-dioxoimidazolidin-1-yl)quinolin-6-yl)methyl)amino)pyrimidin-4-yl)-2-(4-methylpyrimidin-2-yl)cyclopropane-1-carboxamide], for which, in assay [1], the half-maximal effective concentration (EC50) is under 0.0025 µM. In addition, at plasma kallikrein (setting [2]), the IC90 was under 0.5 µM.

For the compound `Cc1ccnc([C@H]2C[C@@H]2C(=O)Nc2cc(NCc3cc4cc(C5CC5)cc(N5CC(=O)N(C)C5=O)n4n3)nc(C)n2)n1` [Example 99, (1S,2S)—N-(6-(((5-cyclopropyl-7-(3-methyl-2,4-dioxoimidazolidin-1-yl)pyrazolo[1,5-a]pyridin-2-yl)methyl)amino)-2-methylpyrimidin-4-yl)-2-(4-methylpyrimidin-2-yl)cyclopropane-1-carboxamide], the EC50 in assay [1] is under 0.0025 µM. For the same compound, at plasma kallikrein, the IC90 was under 0.5 µM.

For `Cc1ccnc([C@H]2C[C@@H]2C(=O)Nc2cc(OCc3cc4cc(C5CC5)cc(N5CC(=O)N(C)C5=O)n4n3)cnn2)n1` [Example 100, (1S,2S)—N-(5-((5-cyclopropyl-7-(3-methyl-2,4-dioxoimidazolidin-1-yl)pyrazolo[1,5-a]pyridin-2-yl)methoxy)pyridazin-3-yl)-2-(4-methylpyrimidin-2-yl)cyclopropane-1-carboxamide], the EC50 in assay [1] was under 0.0025 µM. For the same compound, on plasma kallikrein, the IC90 is under 0.5 µM.

On to `Cc1ccnc([C@H]2C[C@@H]2C(=O)Nc2cc(NCc3cc4cc(C5CC5)cc(N5CC(=O)N(C)C5=O)n4n3)ncn2)n1` [Example 101, (1S,2S)—N-(6-(((5-cyclopropyl-7-(3-methyl-2,4-dioxoimidazolidin-1-yl)pyrazolo[1,5-a]pyridin-2-yl)methyl)amino)pyrimidin-4-yl)-2-(4-methylpyrimidin-2-yl)cyclopropane-1-carboxamide], for which the EC50 in assay [1] was under 0.0025 µM. Moreover, the IC90 on plasma kallikrein (setting [2]) is under 0.5 µM.

Consider `Cc1ccnc([C@H]2C[C@@H]2C(=O)Nc2nncc(N[C@H](C)c3cc4cc(C5CC5)cc(N5CC6CC6C5=O)n4n3)n2)n1` (stereo partly drawn) [Example 105, (1S,2S)—N-(5-(((1R^•)-1-(5-cyclopropyl-7-(2-oxo-3-azabicyclo[3.1.0]hexan-3-yl)pyrazolo[1,5-a]pyridin-2-yl)ethyl)amino)-1,2,4-triazin-3-yl)-2-(4-methylpyrimidin-2-yl)cyclopropane-1-carboxamide], for which, in assay [1], the EC50 was under 0.0025 µM. At plasma kallikrein (setting [2]), the IC90 is under 0.5 µM.
